Reference: patent publication US20110082133A1, “PYRIDONE COMPOUNDS” (priority 2008, published 2011)
Where a name gives a salt, the structure may show the parent alone.

Key:
rat EP4 receptor = rat EP4 receptor (Rattus norvegicus, UniProt P43114); assay: Evaluation test on EP4 receptor affinity in rat ([3H]PGE2 receptor binding test, membrane fraction); design: expressed in transfected cells; host or cells: HEK293 cells, transient transfection (Lipofectamine 2000); membrane fraction used; details: [3H]PGE2 0.3 nM, membrane fraction of rat EP4 expressing HEK293 cells
Method: A rat EP4 receptor cDNA was subcloned into an expression vector (pcDNA3.1-V5-His-topo, manufactured by Invitrogen Corporation) to prepare a rat EP4 expression vector. HEK293 cells were cultured in a collagen type I-treated 15 cm dish (manufactured by Asahi Techno Glass Co. Ltd.) to a confluence of 70%. An Opti-MEM culture medium at 1.2 mL/dish and a transfection reagent (Lipofectamine 2000, manufactured by Invitrogen Corporation) at 60 μL/dish were mixed, followed by being left to stand at room temperature for 5 minutes. Then, the rat EP4 receptor expression vector at 15 μg/dish was added thereto, followed by being left to stand at room temperature for 30 minutes. The liquid mixture of the transfection reagent was added into the dish, followed by culturing for 20 to 24 hours. The cell culture was carried out in a CO2 incubator (37° C., 5% CO2).
The culture medium was removed by suction, 10 mL of cooled PBS was added thereto per 15 cm dish, and the cells were scraped using a cell scraper. After washed with cooled PBS (1,200 rpm, 4° C., 5 minutes), suspended in 6 mL/dish of cooled 20 mM Tris-HCl (pH 7.4; manufactured by Nacalai Tesque Inc., 5 mM EDTA included) and homogenized using a Polytron, the homogenate was centrifuged (26,000 rpm, 20 minutes, 4° C.). The obtained precipitate was resuspended in cooled 20 mM Tris-HCl and homogenized again using a Polytron, and the homogenate was centrifuged (26,000 rpm, 20 minutes, 4° C.). The obtained precipitate was resuspended in 50 mM HEPES (pH 7.5; manufactured by Dojindo Laboratories) at 1 mL per dish, homogenized using a Polytron, and freeze-stored at −80° C. as a membrane fraction. At this time, a part thereof was used for the measurement of the protein concentration. Measurement of the protein concentration was carried out using a Protein assay stain (manufactured by Bio-Rad Laboratories) in accordance with a standard Protocol as appended in duplicate.
[^3H]PGE2 50 μL (final concentration 0.3 nM; manufactured by Perkin Elmer Co., Ltd.), 100 μL (20 μg/well) of the membrane fraction prepared from the rat EP4 expression cell, and 50 μL of a test compound were mixed in a 96-well microplate (manufactured by Sumitomo Bakelite Co., Ltd.), incubated at room temperature for 1 hour, then filtered by suction on a microplate (UniFilter-96 GF/B, manufactured by Perkin Elmer Co., Ltd.) using a cell harvester (FilterMate Harvester, manufactured by Perkin Elmer Co., Ltd.), and washed three times with 300 μL/well of a cooled assay buffer (50 mM HEPES, 10 mM MgCl2). Dilution of [^3H]PGE2 and the membrane fraction was carried out using the assay buffer, and dilution of the test compound and the unlabeled PGE2 was carried out using dimethyl sulfoxide and the assay buffer. The UniFilter-96 GF/B was treated by preliminarily washing twice with 200 μL/well of the cooled assay buffer. The UniFilter-96 GF/B after filtration was dried in a dryer overnight, 50 μL/well of a liquid scintillation cocktail (MicroScint20, manufactured by Perkin Elmer Co., Ltd.) was added thereto, and the radioactivity was then measured using a liquid scintillation counter for a microplate (TopCount, manufactured by Perkin Elmer Co., Ltd.). For measurement of the non-specific binding, an unlabeled PGE2 (final concentration 1 μM; manufactured by Cayman Chemical Company) was added. All of the measurements were carried out in duplicate, and the specific binding amount was determined by subtracting the non-specific binding amount from the total binding amount.
According to the test method as described above, the rat EP4 receptor affinity (Ki) of the compound of the formula (I) was measured. […] In this connection, Ex means Example Compound number.

[1] = system: LPS-induced TNF-α production in THP-1 cells; assay: Inhibitory action on LPS-induced TNF-α production in THP-1 cells; format: cell-based; details: Homo sapiens, 3 hours after LPS, ELISA
Method: Human monocytic cell line THP-1 cells were suspended in an assay medium (PRMI-1640 containing 10% fetal bovine serum, 100 unit/mL penicillin G sodium, and 100 μg/mL streptomycin sulfate), and seeded onto a 96-well plate at 1×10^5 cells/well. 50 μL/well of an assay medium containing a test compound was added thereto, followed by incubation at 37° C. for 30 minutes. Further, 50 μL/well of an assay medium containing 1 to 5 μg/mL of LPS was added thereto, and the TNF-α concentration in the assay medium of each well after 3 hours was measured. The measurement was carried out by means of a standard ELISA method. A 96-well plate which had been coated overnight with an anti-human TNF monoclonal antibody (clone: MAb1) (manufactured by Becton, Dickinson and Company) as a capture antibody was washed with a wash buffer (PBS containing 0.05% Tween-20), and PBS containing 10% fetal bovine serum was incubated at room temperature for 1 hour to perform blocking. After washing with a wash buffer, 100 μL/well of the assay medium to be measured was incubated at 4° C. overnight. As the standard material to be measured, a recombinant human TNF (manufactured by Becton, Dickinson and Company) was used. After washing with a wash buffer, 100 μL of a biotinylated anti-human TNF monoclonal antibody (clone: MAb11) as a detection antibody was treated at room temperature for 1 hour. After washing with a wash buffer, it was treated with 100 μL/well of an HRP-labeled Streptavidin (manufactured by Zymed Laboratories, Inc.) at room temperature for 30 minutes, and washed again. Treatment was conducted using 100 μL/well of a TMB (3,3′,5,5′-tetramethylbenzidine) substrate liquid at room temperature for 20 minutes in a dark room. A 2 M sulfuric acid was added thereto at 50 μL/well to stop the reaction, and an absorbance at 450 nm/570 nm was measured by means of a plate reader SPECRA max (manufactured by Molecular Devices Inc.).

rat EP4 receptor, sequence (P43114 whole entry): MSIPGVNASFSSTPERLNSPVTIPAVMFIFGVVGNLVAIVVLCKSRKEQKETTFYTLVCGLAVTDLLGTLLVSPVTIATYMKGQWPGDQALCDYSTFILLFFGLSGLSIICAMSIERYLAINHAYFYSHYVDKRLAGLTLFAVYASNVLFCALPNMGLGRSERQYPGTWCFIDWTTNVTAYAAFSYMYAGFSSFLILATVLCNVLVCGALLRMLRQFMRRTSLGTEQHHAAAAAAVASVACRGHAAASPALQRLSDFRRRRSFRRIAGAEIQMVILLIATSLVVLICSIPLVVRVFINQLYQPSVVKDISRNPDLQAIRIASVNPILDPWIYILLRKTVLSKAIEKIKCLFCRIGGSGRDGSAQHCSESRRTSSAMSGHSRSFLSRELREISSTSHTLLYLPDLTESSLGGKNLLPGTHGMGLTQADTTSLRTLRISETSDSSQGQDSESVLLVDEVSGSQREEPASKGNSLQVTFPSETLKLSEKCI

SMILES	Ki (rat EP4 receptor) [nM]	IC50 [1] [nM]
CN(Cc1c(Cl)cc(Cl)c(=O)n1CCc1ccc(C(=O)O)cc1)c1cccc(Cl)c1 [Example 160]	11	29
O=C(O)c1ccc(CCn2c(CN3CCc4ccc(F)cc43)c(Cl)cc(Cl)c2=O)cc1 [Example 9, 4-(2-{3,5-dichloro-6-[(6-fluoro-2,3-dihydro-1H-indol-1-yl)methyl]-2-oxopyridin-1(21-1)-yl}ethyl)benzoic acid]	11	11
O=C(O)c1ccc(CCn2c(CNc3cccc(OC(F)(F)F)c3)c(Cl)cc(Cl)c2=O)cc1 [Example 107]	10	40
CCC[C@H]1CCCN1Cc1c(Cl)cc(Cl)c(=O)n1CCc1ccc(C(=O)O)cc1 [Example 17, 4-{2-[3,5-dichloro-2-oxo-6-{[(2S)-2-propylpyrrolidin-1-yl]methyl}pyridin-1(2H)-yl]ethyl}benzoic acid trifluoroacetate]	11	9.4
